The record followed here is article doi:10.1101/2020.01.14.906396v1 (biorxiv, 2020).

For this test, the target named is T1, K2P2.1 (TREK-1, KCNK2) (Homo sapiens, UniProt O95069).
T1 sequence (O95069 1-426): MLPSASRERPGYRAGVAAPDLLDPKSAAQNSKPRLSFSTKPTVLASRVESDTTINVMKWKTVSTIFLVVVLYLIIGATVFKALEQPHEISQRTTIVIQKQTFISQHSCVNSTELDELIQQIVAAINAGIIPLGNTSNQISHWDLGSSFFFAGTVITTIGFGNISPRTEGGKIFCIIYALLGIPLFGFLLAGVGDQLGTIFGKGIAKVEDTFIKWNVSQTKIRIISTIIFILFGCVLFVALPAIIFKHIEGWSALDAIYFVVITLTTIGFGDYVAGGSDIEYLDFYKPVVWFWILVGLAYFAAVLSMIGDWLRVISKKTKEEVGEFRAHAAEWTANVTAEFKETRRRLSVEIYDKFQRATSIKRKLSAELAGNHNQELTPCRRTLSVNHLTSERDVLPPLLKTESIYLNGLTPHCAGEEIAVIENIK
Briefly: two-electrode voltage clamp, Xenopus oocytes. It counts as cell-based. A general note: Two-electrode voltage clamp is typically applied to oocytes expressing channels or transporters.
In turn, `CC(C)[C@@H]1CC[C@@H](C)C[C@H]1O` [menthol] came in with an EC50 of 3800 ± 1000 µM. The compound `Cc1ccc(C(C)C)c(O)c1` [thymol] returned an EC50 of 430 ± 240 µM.

The compound `Cc1ccc(C(C)C)cc1O` [carvacrol, 2-methyl-5-(propan-2-yl) phenol] had an EC50 of 200 ± 60 µM.

In general, EC50 refers to the concentration needed to bring the measured effect to its halfway point. Higher therefore signals weaker potency.
